Experimental data published in US20140009887A1, “FLUORINATED OXIRANES AS HEAT TRANSFER FLUIDS” (3M INNOVATIVE PROPERTIES COMPANY, priority 2011, published 2014).

How the values were obtained:
[1] = Atmospheric lifetime from kinetic studies for reaction with hydroxyl radical; assay type: physicochemical; details: based on kinetic studies for reaction with hydroxyl radical
From the text: The atmospheric lifetimes of C6F14 and CF3OCF(CF3)CF2OCF2OCF3 are reported as 3200 years and 800 years, respectively (see Climate Change 2007: The Physical Science Basis. Contribution of Working Group I to the Fourth Assessment Report of the Intergovernmental Panel on Climate Change, Solomon, S., D. Qin, M. Manning, Z. Chen, M. Marquis, K. B. Averyt, M. Tignor and H. L. Miller (eds.), Cambridge University Press, Cambridge, United Kingdom and New York, N.Y., USA, 996 pp, 2007.). […] Based on kinetic studies for reaction with hydroxyl radical, 2,3-difluoro-2-(1,2,2,2-tetrafluoro-l-trifluoromethyl-ethyl)-3-trifluoromethyl-oxirane has an estimated atmospheric lifetime of 20 years.

[2] = reported in Climate Change 2007, IPCC Fourth Assessment Report; cited from earlier work
[3] = Pour point (thermophysical properties); assay type: physicochemical
From the text: (§1) The useful liquid range (between the pour point and the normal boiling point) of the fluorinated oxiranes (Examples 1-3) are similar to perfluorocarbons (Comparative 1), perfluoroketones (Comparative 2), and perfluoroethers (Comparative 3). The specific heat capacity of the Comparatives is also very similar to the exemplary fluorinated oxiranes.

[4] = Hydrolytic stability: fluoride ion in water phase after aging with deionized water; assay type: physicochemical; details: for F concentration after 30 min at 25° C. / F concentration after 4 hours at 50° C.: 5 g material + 5 g deionized water; for F concentration after 30 min at 25° C.: agitated 30 min at room temperature (~25° C.); for F concentration after 4 hours at 50° C.: monel pressure vessel
Procedure: Example 1 and Comparatives 1 and 2 were tested for hydrolytic stability at room temperature (˜25° C.) and 50° C. Room temperature testing was conducted by placing 5 grams of test material along with 5 grams of deionized water in new polypropylene, centrifuge tubes which were then sealed and agitated for 30 minutes using a shaker set at low speed. Elevated temperature testing was carried out by placing 5 grams of test material along with 5 grams deionized water in a clean monel pressure vessel which was sealed and placed in a convection oven set at 50° C. for 4 hours. After aging, the fluoride concentrations were determined by mixing 0.5 ml of the water phase from each sample with 0.5 ml of TISAB II buffer solution and measuring fluoride ion concentration using a calibrated fluoride selective electrode connected to a pH/millivolt meter (both the electrode and buffer solutions are available from Thermo Scientific Orion, Beverly, Mass.). The hydrolytic stability of Example 1, Comparative Example 1 and Comparative Example 2 were determined and are reported as parts per million by weight (ppmw) of fluorine in Table III below.

Vapor pressure = assay type: physicochemical
From the text: as §1

Kinematic viscosity = assay type: physicochemical; details: for Viscosity @ 25° C.: kinematic viscosity; for Low temperature kinematic viscosity (in words): compared with fluids close in boiling point, FIG. 1 and FIG. 2
From the text: as §1
The viscosity impacts the heat transfer performance and liquid pumping power.

[5] = Normal boiling point (thermophysical properties); assay type: physicochemical
From the text: as §1

Specific heat capacity = assay type: physicochemical
From the text: as §1

[6] = Dielectric breakdown strength according to ASTM D877; assay type: physicochemical; details: ASTM D877, model LD60 liquid dielectric test set
Procedure: In applications where the direct contact of energized, electronic components by the heat transfer fluid occurs, whether intended or otherwise, the need exists for fluids with dielectric breakdown strengths greater than around 8 megavolts/meter (MV/m), measured according to ASTM D877. Such high dielectric breakdown strengths help to avoid damage to the electronic components through short circuits.
The dielectric breakdown strengths of Example 1 and 3 were determined according to ASTM D877, using a model LD60 liquid dielectric test set available from Phenix Technologies, Accident, Md. The breakdown strengths for example 1 and 3 were 15.5 MV/m and 17.3 MV/m respectively.

FC(F)(F)C(F)(F)C1(F)OC1(C(F)(F)F)C(F)(F)F (stereo not drawn) [2-fluoro-2-pentafluoroethyl-3,3-bis-trifluoromethyl-oxirane]
Estimated atmospheric lifetime [1]: 77 years

FC(F)(F)OC(F)(F)OC(F)(F)C(F)(OC(F)(F)F)C(F)(F)F (stereo not drawn) [CF3OCF(CF3)CF2OCF2OCF3]
Atmospheric lifetime [2]: 800 years

FC(F)(F)C(F)(F)C(F)(F)C(F)(F)C(F)(F)C(F)(F)F [Comparative 1, Perfluorohexane]
Pour Point [3]: −90 °C
F concentration after 30 min at 25° C. [4]: 0.09 ppmw
F concentration after 4 hours at 50° C. [4]: 0.23 ppmw
Atmospheric lifetime [2]: 3200 years
Vapor Pressure @ 25° C. (Vapor pressure): 30.0 kPa
Viscosity @ 25° C. (Kinematic viscosity): 3.8 ×10^−7 m^2/s
Normal Boiling Point [5]: 56 °C
Specific Heat Capacity (Specific heat capacity): 1100 J/kg-K

O=C(C(F)(F)C(F)(F)F)C(F)(C(F)(F)F)C(F)(F)F [Comparative 2, Dodecafluoro-2-methylpentan-3-one]
Pour Point [3]: −108 °C
F concentration after 30 min at 25° C. [4]: 1.13 ppmw
F concentration after 4 hours at 50° C. [4]: 5.89 ppmw
Vapor Pressure @ 25° C. (Vapor pressure): 40.4 kPa
Viscosity @ 25° C. (Kinematic viscosity): 4.0 ×10^−7 m^2/s
Normal Boiling Point [5]: 49 °C
Specific Heat Capacity (Specific heat capacity): 1103 J/kg-K

CCOC(F)(C(F)(F)C(F)(F)C(F)(F)F)C(F)(C(F)(F)F)C(F)(F)F (stereo not drawn) [Comparative 3, 2-trifluoromethyl-3-ethoxydodecafluorohexane]
Pour Point [3]: −100 °C
Vapor Pressure @ 25° C. (Vapor pressure): 2.1 kPa
Viscosity @ 25° C. (Kinematic viscosity): 7.7 ×10^−7 m^2/s
Normal Boiling Point [5]: 128 °C
Specific Heat Capacity (Specific heat capacity): 1128 J/kg-K

FC(F)(F)C(F)(F)C(F)(F)N(C(F)(F)C(F)(F)C(F)(F)F)C(F)(F)C(F)(F)C(F)(F)F [Comparative 4, Perfluorotripropylamine]
Pour Point [3]: −50 °C
Vapor Pressure @ 25° C. (Vapor pressure): 1.4 kPa
Viscosity @ 25° C. (Kinematic viscosity): 7.5 ×10^−7 m^2/s
Normal Boiling Point [5]: 130 °C
Specific Heat Capacity (Specific heat capacity): 1100 J/kg-K

FC(F)(F)C1(F)OC1(F)C(F)(C(F)(F)F)C(F)(F)F (stereo not drawn) [Example 1, 2,3-difluoro-2-(1,2,2,2-tetrafluoro-1-trifluoromethyl-ethyl)-3-trifluoromethyl-oxirane]
Pour Point [3]: −145 °C
F concentration after 30 min at 25° C. [4]: 0.14 ppmw
F concentration after 4 hours at 50° C. [4]: 0.13 ppmw
Hydrolytic stability (comparison in words) ([4]; room temperature and 50° C.): comparable to that of comparative 1 and better than comparative 2
Estimated atmospheric lifetime [1]: 20 years
Dielectric breakdown strength [6]: 15.5 MV/m
Vapor Pressure @ 25° C. (Vapor pressure): 36.0 kPa
Viscosity @ 25° C. (Kinematic viscosity): 3.7 ×10^−7 m^2/s
Low temperature kinematic viscosity (in words) (Kinematic viscosity): better low temperature viscosity
Normal Boiling Point [5]: 51.7 °C
Specific Heat Capacity (Specific heat capacity): 1145 J/kg-K

FC1(F)C(F)(F)C(F)(F)C2(F)OC2(F)C1(F)F (stereo not drawn) [Example 2, 1,2,2,3,3,4,4,5,5,6-decafluoro-7-oxa-bicyclo [4.1.0]heptane]
Pour Point [3]: −88 °C
Vapor Pressure @ 25° C. (Vapor pressure): 30.3 kPa
Viscosity @ 25° C. (Kinematic viscosity): 6.6 ×10^−7 m^2/s
Low temperature kinematic viscosity (in words) (Kinematic viscosity): better low temperature viscosity
Normal Boiling Point [5]: 56.1 °C
Specific Heat Capacity (Specific heat capacity): 1083 J/kg-K

HFP Trimer-Oxirane [Example 3]
Pour Point [3]: −103 °C
Dielectric breakdown strength [6]: 17.3 MV/m
Vapor Pressure @ 25° C. (Vapor pressure): 1.6 kPa
Viscosity @ 25° C. (Kinematic viscosity): 12.5 ×10^−7 m^2/s
Low temperature kinematic viscosity (in words) (Kinematic viscosity): acceptable viscosity for heat transfer applications as low as −40 °C
Normal Boiling Point [5]: 121.9 °C
Specific Heat Capacity (Specific heat capacity): 869 J/kg-K
